{"source": "patent US12343350B2", "about": "“Istaroxime-containing intravenous formulation for the treatment of acute heart failure (AHF)” (Windtree Therapeutics, Inc., priority 2019, dated 2025)", "key": {"dog renal Na,K-ATPase": {"target": "dog renal Na,K-ATPase (Canis lupus familiaris (Dog) (Canis familiaris), UniProt P50997)", "experiment": "Inhibition of dog renal Na,K-ATPase activity (32P-ATP)", "assay_type": "biochemical", "description": "Kidneys were sliced and the outer medulla was dissected, pooled and suspended (1 g/10 ml) in a sucrose-histidine solution, containing 250 mM sucrose, 30 mM histidine and 5 mM EDTA, pH 7.2 and homogenized. The homogenate was centrifuged at 6.000 g for 15 min, the supernatant was decanted and centrifuged at 48.000 g for 30 min. The pellet was suspended in the sucrose-histidine buffer and incubated for 20 min with a sodium-dodecyl-sulphate (SDS) solution dissolved in a gradient buffer, containing 25 mM imidazole and 1 mM EDTA, pH 7.5. […] The pellet was suspended in the gradient buffer.\nIncreasing concentrations of the standard ouabain, or tested compound, were incubated with 0.3 μg of purified dog kidney enzyme for 10 min at 37° C. in 120 μl final volume of a medium containing 140 mM NaCl, 3 mM MgCl2, 50 mM Hepes-Tris, 3 mM ATP at a pH 7.5. Then, 10 μl of incubation solution containing 10 mM KCl and 20 nCi of ^32P-ATP (3-10 Ci/mmol, Perkin Elmer) was added, and the reaction was continued for 15 min at 37° C. The reaction was then stopped by acidification with 20% v/v ice-cold perchloric acid. ^32P was separated by centrifugation with activated Charcoal (Norit A, Serva) and the radioactivity was measured. The inhibitory activity was expressed as percent of the control samples carried out in the absence of ouabain or tested compound."}, "[1]": {"experiment": "Acute toxicity (LD50) in mouse", "assay_type": "in vivo", "conditions": "Albino Swiss CD-1, in vivo, single administration", "description": "Acute toxicity has been determined in the mouse (Albino Swiss CD-1, body weight 30 g). Mice were orally treated, or intravenously injected, with single administration of increasing doses of the test substance to identify the dose causing 50% mortality. Mortality occurred within 30 min after the administration and survival after 24 h. The acute toxicity (LD50) was then assessed.\nThe acute toxicity of the tested compound PST 3093 was determined in the mouse (Albino Swiss CD-1, body weight 30 g). Compound PST 3093 was orally administered or intravenously injected at increasing doses to identify the dose causing 50% mortality. Mortality occurred within 30 min after the administration and survival after 24 h."}, "[2]": {"experiment": "Plasma levels of istaroxime and its metabolites in patients (HPLC-MS/MS)", "assay_type": "in vivo, human", "conditions": "for plasma concentration course during the infusion period: 24 h infusion of 0.5 or 1 μg/kg/min istaroxime, Caucasian and Chinese patients", "description": "The quantitative determination of PST 2744 and its metabolite PST 2915 in human plasma was determined by the HPLC-MS/MS method that included a mobile phase of 70:30 acetonitrile/water, 1 mL/L 1M formic acid, and 1 mL/L 5M ammonium acetate. The flow rate was 1 mL/min, and the chromatographic separation was by reversed phase HPLC (Column: SYNERGI 4μ POLAR-RP80A 150×4.6 mm equipped with a Security-guard Phenomenex Polar-RP 4×3 mm). Detection was performed by MS/MS, and the acquisition mode was Multiple Reaction Monitoring (MRM).\nThe quantitative determination of istaroxime metabolies PST 2922 and PST 3093 in human plasma was also measured by the HPLC-MS/MS method. In this case, the mobile phase was 50:50 H2 O/CH3 CN (v/v) and 500 μL/L 98-100% HCOOH. The flow rate was 1 mL/min and chromatographic separation was done by reversed-phase HPLC (Column: Phenomenex Phenyl hexyl, 150×4.6 mm, equipped with a Phenomenex phenyl propyl guard-cartridge) under isocratic conditions. Detection was performed by MS/MS (376.0→282.0 amu for PST2922, 378.0→284.0 amu for PST 3093 and 362.0→268.0 amu for PST 3418, IS)."}, "SERCA2a": {"target": "SERCA2a (Canis lupus familiaris (Dog) (Canis familiaris), UniProt O46674)", "sequence (O46674 whole entry)": "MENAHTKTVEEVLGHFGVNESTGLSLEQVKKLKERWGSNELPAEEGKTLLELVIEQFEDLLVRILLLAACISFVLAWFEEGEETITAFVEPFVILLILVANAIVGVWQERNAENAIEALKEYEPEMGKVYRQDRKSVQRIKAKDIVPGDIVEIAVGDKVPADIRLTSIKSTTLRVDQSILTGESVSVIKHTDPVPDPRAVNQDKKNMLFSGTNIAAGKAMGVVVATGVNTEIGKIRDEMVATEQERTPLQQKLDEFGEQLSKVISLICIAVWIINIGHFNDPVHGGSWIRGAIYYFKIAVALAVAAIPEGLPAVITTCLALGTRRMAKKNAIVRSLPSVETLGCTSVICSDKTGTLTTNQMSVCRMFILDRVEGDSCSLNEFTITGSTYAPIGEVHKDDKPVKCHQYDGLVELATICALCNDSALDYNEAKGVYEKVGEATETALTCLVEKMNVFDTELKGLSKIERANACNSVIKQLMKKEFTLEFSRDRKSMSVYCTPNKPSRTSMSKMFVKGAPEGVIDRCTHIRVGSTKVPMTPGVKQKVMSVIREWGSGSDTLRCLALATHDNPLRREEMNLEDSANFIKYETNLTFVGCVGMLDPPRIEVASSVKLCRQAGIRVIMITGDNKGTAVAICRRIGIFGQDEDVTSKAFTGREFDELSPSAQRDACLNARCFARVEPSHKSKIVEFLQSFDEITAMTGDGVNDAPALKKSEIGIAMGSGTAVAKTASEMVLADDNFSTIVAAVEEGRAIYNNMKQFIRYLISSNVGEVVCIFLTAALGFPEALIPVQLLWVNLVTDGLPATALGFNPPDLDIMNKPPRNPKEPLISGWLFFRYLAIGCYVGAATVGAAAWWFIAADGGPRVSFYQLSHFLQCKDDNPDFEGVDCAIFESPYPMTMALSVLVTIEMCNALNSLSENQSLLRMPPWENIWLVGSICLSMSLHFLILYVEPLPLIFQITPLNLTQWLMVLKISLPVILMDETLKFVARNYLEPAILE", "experiment": "SERCA2a ATPase activity in heart-derived SR microsomes from normal dog", "assay_type": "biochemical", "conditions": "for % increase vs control (Vmax) / Vmax: normal dog SR microsomes; for Vmax: mean ± SD", "description": "Male beagle dogs were used for obtaining cardiac tissues for SERCA2a-enriched sarcoplasmic reticulum preparations. Healthy dogs were utilized for obtaining the data in Table 3. Chronic heart failure was induced in dogs by multiple intracoronary microembolizations with polystyrene latex microspheres ([…], Polysciences, Warrington, PA, USA) as described previously (see Sabbah H N et al., Am J Physiol. 1991; 260:H1379-84). The experiments were conducted in the General Pharmacology Department of Sigma-Tau, Rome, Italy.\nLeft ventricle tissues were dissected, homogenized in 4 volumes of 10 mM NaHCO3 (pH 7), 1 mM PMSF, 10 μg/ml Aprotinin and Leupeptin and centrifuged at 12.000 g for 15 minutes, as described in Nediani C. et al. (J Biol Chem. 1996; 271:19066-73). Supernatants were filtered and centrifuged at 100.000 g for 30 min. Contractile proteins were extracted by suspending the pellets with 0.6 M KCl, 30 mM Histidine, pH 7 and further centrifugation at 100.000 g for 30 min. Final pellets were reconstituted with 0.3 M Sucrose, 30 mM Histidine, pH 7.\nSERCA2a activity was measured in vitro as ^32P-ATP hydrolysis at different Ca2^+ concentrations (100 to 3000 nM) in the absence and presence of the tested compounds as described previously (see Micheletti R. et al., Am J Card 2007; 99:24A-32A). Increasing concentrations of each compound (from 0.05 to 300 nM) were pre-incubated with 2 μg of microsomes for 5 min at 4° C. in 80 μl of a solution containing 100 mM KCl, 5 mM MgCl2, 1 μM A23187, 20 mM Tris, pH 7.5. Then, 20 μl of 5 mM Tris-ATP containing 50 nCi of ^32P-ATP (3-10 Ci/mmol, Perkin Elmer) was added. The ATP hydrolysis was continued for 15 min at 37° C. and was stopped by acidification with 100 μl of 20% v/v ice-cold perchloric acid. ^32P was separated by centrifugation with activated charcoal (Norit A, SERVA) and the radioactivity was measured. SERCA2a-dependent activity was identified as the portion of total hydrolytic activity inhibited by 10 μM cyclopiazonic acid (see Seidler N W. et al., J Biol Chem. 1989; 264:17816-23).\nDose-response curves were fitted by using a sigmoidal curve fitting software and the maximal velocity (Vmax) activity and the Kd Ca2^+ were calculated (Synergy Software KaleidaGraph 3.6).\nThe compounds disclosed herein were tested on SERCA2a ATPase activity prepared from normal and failing dogs in a range of concentrations from […]. The effect has been expressed as % increase of the Vmax activity of a control sample run in the absence of compound. Data are mean & SD, where n indicates the number of experiments."}}, "note": "Read-outs that look alike come from different tables or passages of the source. Marks after values point to notes of the source that are not given here.", "data": [{"smiles": "C[C@]12CCC(=NOCCN)C[C@@H]1C(=O)C[C@@H]1[C@@H]2CC[C@]2(C)C(=O)CC[C@@H]12", "note": "[Istaroxime, (3Z,5a)-3-[(2-aminoethoxy)imino]androstane-6,17-dione]", "values": [{"measurement": "IC50", "setting": "dog renal Na,K-ATPase; purified dog kidney enzyme, 37° C., read-out: IC50, inhibition of dog renal Na,K-ATPase", "value": 140, "unit": "nM"}, {"measurement": "LD50 at 24 h", "setting": "[1]; iv", "value": "29 to 32", "unit": "mg/kg"}, {"measurement": "LD50 at 24 h", "setting": "[1]; os (oral)", "value": 200, "unit": "mg/kg"}, {"measurement": "plasma concentration course during the infusion period", "setting": "[2]", "value": "remain relatively constant"}, {"measurement": "plasma levels", "setting": "[2]; at 48 hours", "value": "not detectable"}, {"measurement": "plasmatic level", "setting": "[2]; following time points, whole duration of the infusion", "value": "about 8 ng/ml"}, {"measurement": "concentration at 3 h", "setting": "[2]; human, plasma, intravenous, at 3 hour time point of infusion, read-out: plasmatic level", "value": "~10", "unit": "ng/mL"}, {"measurement": "% increase vs control (Vmax)", "setting": "SERCA2a; 0.1 nM compound", "value": "14* %"}, {"measurement": "Vmax", "setting": "SERCA2a; 0.1 nM compound", "value": "1.423 ± 0.123", "unit": "μmol/min/mg prot"}, {"measurement": "% increase vs control (Vmax)", "setting": "SERCA2a; 10 nM compound", "value": "20** %"}, {"measurement": "Vmax", "setting": "SERCA2a; 10 nM compound", "value": "1.505 ± 0.111", "unit": "μmol/min/mg prot"}, {"measurement": "SERCA2a activity stimulation", "setting": "SERCA2a; normal dog SR vesicles, 0.1 nM and 10 nM", "value": "significantly stimulated"}]}, {"smiles": "C[C@]12CCC(=NOCC(=O)O)CC1[C@H](O)CC1C2CC[C@]2(C)C(=O)CCC12", "note": "(stereo partly drawn) [PST 3093, (E,Z)-[(6-beta-hydroxy-17-oxoandrostan-3-ylidene)amino]oxyacetic acid]", "values": [{"measurement": "IC50", "setting": "dog renal Na,K-ATPase", "value": "> 100000", "unit": "nM"}, {"measurement": "LD50 at 24 h", "setting": "[1]; iv", "value": "> 250", "unit": "mg/kg"}, {"measurement": "LD50 at 24 h", "setting": "[1]; os (oral)", "value": "> 200", "unit": "mg/kg"}, {"measurement": "plasma concentration course during the infusion period", "setting": "[2]", "value": "continue to accumulate"}, {"measurement": "average plasma level", "setting": "[2]; at 48 hours, 1 μg/kg/min istaroxime infusion", "value": "about 21.2 ng/ml"}, {"measurement": "average plasma level", "setting": "[2]; at 48 hours, Caucasian patients, 0.5 μg/kg/min istaroxime infusion", "value": "about 25.02 ng/ml"}, {"measurement": "average plasma level", "setting": "[2]; at 48 hours, Chinese patients, 0.5 μg/kg/min istaroxime infusion", "value": "about 12.5 ng/ml"}, {"measurement": "average plasma concentration", "setting": "[2]; at 70 hours, or 46 hours post-infusion", "value": "exceeding 10 ng/mL"}, {"measurement": "average plasma concentration", "setting": "[2]; by the end of the 24 h istaroxime infusion period (0.5 or 1 μg/kg/min)", "value": "exceeding 60 ng/mL"}, {"measurement": "% increase vs control (Vmax)", "setting": "SERCA2a; 0.1 nM compound", "value": "25** %"}, {"measurement": "% increase vs control (Vmax)", "setting": "SERCA2a; 10 nM compound", "value": "19** %"}]}]}
